This passage reports GI50 and TGI results from PubChem BioAssay (NCI).

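How tested: cells in 96-well plates exposed to compound for 48 hours at five concentrations. GI50 marks 50% less growth. TGI is the concentration that stops growth completely.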

Test systems include SK-MEL-28 melanoma; SF-295 CNS; HOP-92 NSCLC; RPMI-8226 leukemia; OVCAR-4 ovarian; UO-31 renal; SK-MEL-2 melanoma; MOLT-4 leukemia; IGROV1 ovarian; OVCAR-8 ovarian.
Assay in all cases: NCI tumour cell line growth inhibition, 48 h

Turning to `COc1cc(-n2cc(-c3ccccc3)[nH]c2=O)cc(OC)c1OC`, the GI50 was 31.4 µM in the test with SK-MEL-28 melanoma; 37.8 µM in the test on SF-295 CNS; 20.6 µM in the test with HOP-92 NSCLC; over 100 µM in the test on RPMI-8226 leukemia; 17.1 µM in the test on OVCAR-4 ovarian; 37.9 µM in the test on UO-31 renal. For the same molecule, the GI50 in the test with SK-MEL-2 melanoma, with MOLT-4 leukemia and in the test on IGROV1 ovarian was over 100 µM each time. The TGI in the test with SK-MEL-28 melanoma was over 100 µM; in the test on SF-295 CNS it was over 100 µM; with HOP-92 NSCLC, 83.1 µM; in the test on RPMI-8226 leukemia, over 100 µM; in the test on OVCAR-4 ovarian, 52.8 µM; with UO-31 renal, over 100 µM. The TGI in the test on SK-MEL-2 melanoma, in the test on MOLT-4 leukemia and with IGROV1 ovarian was over 100 µM in each case.

As for `CCC/C=C\C=C\C1(NS(=O)(=O)c2ccc(C)cc2)CCC(C(C)(C)C)CC1` (stereo unspecified), the TGI in the test on SF-295 CNS came out at 51.2 µM; with HOP-92 NSCLC it was 50.9 µM; in the test with RPMI-8226 leukemia, 27.2 µM; in the test with OVCAR-4 ovarian, 49.4 µM; in the test on UO-31 renal it was 59 µM; with SK-MEL-2 melanoma, 29 µM. Moreover, the TGI in the test with MOLT-4 leukemia worked out at 24 µM; in the test with IGROV1 ovarian, 87.3 µM.

Consider `Nc1ccc(-c2cc(C(=O)Nc3nccs3)[nH]c(=S)n2)cc1`, for which the TGI in the test with SK-MEL-28 melanoma, in the test on HOP-92 NSCLC, with RPMI-8226 leukemia, in the test with OVCAR-4 ovarian, in the test on UO-31 renal and with SK-MEL-2 melanoma was over 100 µM each time. Moreover, the TGI in the test with MOLT-4 leukemia, with IGROV1 ovarian and with OVCAR-8 ovarian was over 100 µM throughout.

Take `N#CC1=C(N)NC(=S)NC1c1ccc(-c2ccc(-c3nc4ccccc4o3)cc2)s1` (stereo unspecified): the GI50 in the test with SF-295 CNS is 13.3 µM; with HOP-92 NSCLC it was 9.84 µM; in the test on RPMI-8226 leukemia, 16 µM; with UO-31 renal, 7.89 µM; in the test with SK-MEL-2 melanoma it was 9.2 µM; with IGROV1 ovarian it was 2.21 µM. For the same molecule, the GI50 with OVCAR-8 ovarian was 10.1 µM. Moreover, the TGI in the test with SF-295 CNS was 38.8 µM; with HOP-92 NSCLC, over 50 µM; in the test with RPMI-8226 leukemia, over 50 µM; in the test with UO-31 renal, 17 µM; in the test with SK-MEL-2 melanoma, 28.8 µM; in the test with IGROV1 ovarian, 12.7 µM. For the same molecule, the TGI in the test with OVCAR-8 ovarian was determined as 22.4 µM.

In the case of `O=C1/C(=C/c2ccc3c(c2)OCCO3)CCC/C1=C\c1ccc2c(c1)OCCO2`, the TGI in the test on SK-MEL-28 melanoma was 77.2 µM; in the test with SF-295 CNS, 57.3 µM; in the test with HOP-92 NSCLC, over 100 µM; with RPMI-8226 leukemia it was 45.8 µM; in the test on OVCAR-4 ovarian it was 61 µM; in the test on UO-31 renal it was over 100 µM. Also, the figures for the TGI in the test with MOLT-4 leukemia, in the test on IGROV1 ovarian and in the test with OVCAR-8 ovarian were over 100 µM, over 100 µM and 30.6 µM, respectively.

As for `COc1ccc(/C(C)=N/NC(=O)CSc2nc3ccccc3c(=O)n2CCc2ccc(S(N)(=O)=O)cc2)cc1`, the GI50 is 1.75 µM with SK-MEL-28 melanoma; 1.8 µM in the test with SF-295 CNS; 1.89 µM in the test on HOP-92 NSCLC; 2.02 µM in the test with RPMI-8226 leukemia; 1.77 µM with OVCAR-4 ovarian; 1.56 µM in the test with UO-31 renal. Further, the GI50 with SK-MEL-2 melanoma was 2.58 µM; in the test on MOLT-4 leukemia, 4.2 µM; with IGROV1 ovarian, 1.97 µM. Also, the TGI in the test with SK-MEL-28 melanoma came to 3.3 µM; in the test on SF-295 CNS, 3.86 µM; in the test with HOP-92 NSCLC, 4 µM; in the test on RPMI-8226 leukemia it was 10.6 µM; in the test with OVCAR-4 ovarian, 3.52 µM; in the test on UO-31 renal, 3.28 µM. Further, the TGI in the test with SK-MEL-2 melanoma came to 6.68 µM; in the test with MOLT-4 leukemia it was 84.2 µM; in the test on IGROV1 ovarian, 3.98 µM.

Regarding `COc1ccc(C(C)c2cc(OC)c(OC)c(OC)c2)cc1` (stereo unspecified), the GI50 in the test on SK-MEL-28 melanoma is 25.2 µM; in the test on SF-295 CNS, 0.0752 µM; in the test with HOP-92 NSCLC, 3.6 µM; in the test with RPMI-8226 leukemia, 0.209 µM; in the test on OVCAR-4 ovarian it was 2.97 µM; in the test on UO-31 renal, 0.409 µM. For the same molecule, the values for the GI50 in the test on MOLT-4 leukemia, in the test on IGROV1 ovarian and in the test with OVCAR-8 ovarian were 0.264 µM, 0.278 µM and 0.263 µM, respectively. For the same molecule, the TGI in the test on SK-MEL-28 melanoma, with SF-295 CNS, in the test on HOP-92 NSCLC, in the test on RPMI-8226 leukemia, in the test on OVCAR-4 ovarian and with UO-31 renal was over 50 µM in each case. For the same molecule, the TGI with MOLT-4 leukemia, in the test on IGROV1 ovarian and in the test on OVCAR-8 ovarian was over 50 µM each time.

Regarding `CCCOc1cc2ccccc2cc1C(=O)Nc1nc(NC)c2c(ccc3nccc32)[nH]1`, the GI50 was 1.14 µM in the test with SK-MEL-28 melanoma; 0.0866 µM in the test on SF-295 CNS; 1.15 µM with HOP-92 NSCLC; 0.402 µM in the test with RPMI-8226 leukemia; 1.17 µM in the test on UO-31 renal; 0.325 µM with SK-MEL-2 melanoma. The GI50 in the test with MOLT-4 leukemia was 0.496 µM; with IGROV1 ovarian it was 1.17 µM; in the test with OVCAR-8 ovarian, 0.89 µM. Moreover, the TGI in the test on SK-MEL-28 melanoma turned out to be 2.43 µM; in the test on SF-295 CNS it was 1.2 µM; in the test on HOP-92 NSCLC, 2.51 µM; in the test on RPMI-8226 leukemia, 1.83 µM; with UO-31 renal it was 2.59 µM; with SK-MEL-2 melanoma, 1.36 µM. Further, the results for the TGI in the test on MOLT-4 leukemia, in the test on IGROV1 ovarian and in the test with OVCAR-8 ovarian were 2.32 µM, 2.71 µM and 2.3 µM, respectively.

As to `CC(=O)Oc1ccc2c(c1)[C@@]1(C)CCCC(C)(C)[C@@H]1CC2`, the GI50 in the test with SK-MEL-28 melanoma is 19.3 µM; in the test on SF-295 CNS, 19.1 µM; with HOP-92 NSCLC it was 21.7 µM; in the test on RPMI-8226 leukemia, 12.1 µM; in the test with UO-31 renal, 31.3 µM; in the test on SK-MEL-2 melanoma it was 29.8 µM. For the same molecule, the GI50 in the test on MOLT-4 leukemia is 30.9 µM; with IGROV1 ovarian, 49.4 µM; with OVCAR-8 ovarian, 18.8 µM. Besides, the TGI in the test with SK-MEL-28 melanoma is 49.8 µM; in the test with SF-295 CNS, 56.6 µM; in the test with HOP-92 NSCLC, 41.9 µM; in the test on RPMI-8226 leukemia, 30.3 µM; in the test with UO-31 renal, 79.9 µM; in the test with SK-MEL-2 melanoma, over 100 µM. For the same molecule, the values for the TGI in the test on MOLT-4 leukemia, in the test on IGROV1 ovarian and in the test with OVCAR-8 ovarian were over 100 µM, over 100 µM and 41.6 µM, respectively.

Regarding `C/C(=N\NC(=O)C[N+](C)(C)C)c1sc(-c2cccnc2)nc1C`, the TGI in the test on SK-MEL-28 melanoma, in the test on SF-295 CNS, in the test with HOP-92 NSCLC, in the test on RPMI-8226 leukemia, in the test with UO-31 renal and in the test with SK-MEL-2 melanoma was over 100 µM in each case. The TGI in the test with MOLT-4 leukemia, in the test with IGROV1 ovarian and with OVCAR-8 ovarian was over 100 µM each time.

With `CCc1cccc(C(C)C)c1NC(=O)CCl`, the TGI in the test on SK-MEL-28 melanoma, in the test on SF-295 CNS, in the test on HOP-92 NSCLC, with RPMI-8226 leukemia, with UO-31 renal and in the test on SK-MEL-2 melanoma was over 100 µM throughout. Also, the TGI with MOLT-4 leukemia and in the test with IGROV1 ovarian was over 100 µM each time.

Regarding `CCOc1ccccc1NC(=O)C(=O)C(/C(=N/N)C(=O)OC)c1nc2ccc([N+](=O)[O-])cc2[nH]c1=O` (stereo unspecified), the TGI in the test on SK-MEL-28 melanoma, in the test with SF-295 CNS, in the test on HOP-92 NSCLC, in the test with RPMI-8226 leukemia, in the test with OVCAR-4 ovarian and in the test on SK-MEL-2 melanoma was over 100 µM each time. Besides, the TGI with MOLT-4 leukemia, in the test on IGROV1 ovarian and in the test on OVCAR-8 ovarian was over 100 µM in each case.

With `O=C1N2Cc3c4ccc5c3CN3C(=O)N6Cc7c(ccc(c7CN1C6(c1ccccc1)C23c1ccccc1)OCCOCCOc1cc(Br)c(Br)cc1OCCOCCO4)OCCOCCOc1cc(Br)c(Br)cc1OCCOCCO5` (stereo unspecified), the TGI in the test on SK-MEL-28 melanoma is over 100 µM; with HOP-92 NSCLC it was 90 µM; with RPMI-8226 leukemia, over 100 µM; with OVCAR-4 ovarian, over 100 µM; in the test on UO-31 renal it was over 100 µM; with SK-MEL-2 melanoma, over 100 µM. The TGI with MOLT-4 leukemia, in the test on IGROV1 ovarian and with OVCAR-8 ovarian was over 100 µM in each case.

For the molecule `CCN(CC)c1c(-c2ccccc2)n[nH]c1C(=O)OC`, the GI50 in the test on SK-MEL-28 melanoma is 22.2 µM; with HOP-92 NSCLC it was 17.8 µM; with RPMI-8226 leukemia, 14.6 µM; with OVCAR-4 ovarian, 54.1 µM; with UO-31 renal, 46.5 µM; in the test on SK-MEL-2 melanoma, 42.5 µM. In addition, the GI50 in the test with MOLT-4 leukemia was 18.6 µM; with IGROV1 ovarian, 50.8 µM; in the test with OVCAR-8 ovarian it was 15.5 µM. In addition, the TGI with SK-MEL-28 melanoma was over 100 µM; with HOP-92 NSCLC it was 51.1 µM; with RPMI-8226 leukemia, 38.4 µM; in the test on OVCAR-4 ovarian, over 100 µM; with UO-31 renal, over 100 µM; with SK-MEL-2 melanoma, over 100 µM. For the same molecule, the TGI was 58.2 µM in the test with MOLT-4 leukemia, over 100 µM with IGROV1 ovarian and 44.9 µM in the test with OVCAR-8 ovarian.

With `N#Cc1cnc2cc(OC[C@@H](O)CO)c(NC(=O)C3CCCC3)cc2c1Nc1ccc(OCc2cccc(F)c2)c(Cl)c1`, the GI50 is 0.669 µM with SK-MEL-28 melanoma; 3.78 µM in the test on SF-295 CNS; 0.99 µM in the test with HOP-92 NSCLC; 0.728 µM in the test with RPMI-8226 leukemia; 0.514 µM in the test with OVCAR-4 ovarian; 2.21 µM with UO-31 renal. The figures for the GI50 in the test on SK-MEL-2 melanoma, in the test with MOLT-4 leukemia and with OVCAR-8 ovarian were 0.915 µM, 1.49 µM and 1.16 µM, respectively. The TGI in the test with SK-MEL-28 melanoma is 1.42 µM; in the test on SF-295 CNS it was 12.2 µM; in the test with HOP-92 NSCLC, 2.48 µM; in the test on RPMI-8226 leukemia, 3.12 µM; with OVCAR-4 ovarian, 1.28 µM; in the test with UO-31 renal, over 50 µM. Besides, the TGI in the test with SK-MEL-2 melanoma stood at 1.86 µM; with MOLT-4 leukemia it was 4.69 µM; in the test on OVCAR-8 ovarian it was 3.01 µM.
